Results published in US4605744A, “Imidazole derivatives” (Hoffmann-La Roche Inc., priority 1985, dated 1986).
Where a name gives a salt, the structure may show the parent alone. Read-outs that look alike come from different tables or passages of the source.

What was measured:
Experiment in all cases: In vitro antibacterial activity (MIC)
Format in all cases: cell-based
S. aureus 1059B = details: Staphylococcus aureus, read-out: MIC
Description: (§1) Drug dilutions are prepared in Mueller-Hinton broth ranging from 128 to 0.008 μg/ml. The diluted agents are dispensed in 100 μl amounts into the wells of a 96-well tray and used immediately or frozen at -10° to -70° C. until needed. Using an automated inoculator, 1.5 μl of a 10^-2 dilution of an overnight culture is added to each well of the tray. The tops of the trays are then sealed using transparent tape and incubated overnight at 37° C. The trays are examined with the aid of a viewer. The lowest concentration at which no growth is observed is considered to be the minimum inhibitory concentration (MIC).

S. pneumoniae SC = details: Streptococcus pneumoniae, read-out: MIC
Description: as §1

C. freundii 8ASM = details: Citrobacter freundii, 8ASM, C. freundii 8ASM; read-out: MIC
Description: as §1

P. mirabilis 190 = details: Proteus mirabilis, 190, P. mirabilis 190; read-out: MIC
Description: as §1

P. aeruginosa POW 151 = details: Pseudomonas aeruginosa, POW151
Description: as §1

E. cloacae 24 = details: Enterobacter cloacae, 24, E. cloacae 24; read-out: MIC
Description: as §1

S. typhi P58A = details: Salmonella enterica, TYPHI
Description: as §1

K. pneumoniae 503-964 = details: Klebsiella pneumoniae, 503964; K. pneumoniae 503-964; read-out: MIC
Description: as §1

E. coli 4 = details: Escherichia coli, 4
Description: as §1

S. marcescens S2 = details: Serratia marcescens; S. marcescens S2; read-out: MIC
Description: as §1

S. marcescens 5805 = details: Serratia marcescens, 5805, S. marcescens 5805; read-out: MIC
Description: as §1

P. aeruginosa 503-56 = test system: P. aeruginosa 503-56
Description: as §1

S. marcescens S4 = details: Serratia marcescens, S4, S. marcescens S4; read-out: MIC
Description: as §1

S. pneumoniae 6301 = details: Streptococcus pneumoniae, 6301, S. pneumoniae 6301; read-out: MIC
Description: as §1

S. marcescens S147 = details: Serratia marcescens; S. marcescens S147; read-out: MIC
Description: as §1

E. aerogenes 503-478 = details: Klebsiella aerogenes, 503478, E. aerogenes 503-478; read-out: MIC
Description: as §1

S. pyogenes 4 = details: Streptococcus pyogenes, 4, S. pyogenes 4; read-out: MIC
Description: as §1

E. coli R-563 = details: Escherichia coli, R563
Description: as §1

E. cloacae 6951 = details: Enterobacter cloacae, 6951, E. cloacae 6951; read-out: MIC
Description: as §1

S. faecalis C1 = details: Enterococcus faecalis; S. faecalis C1; read-out: MIC
Description: as §1

P. vulgaris 101 = details: Proteus vulgaris, 101, P. vulgaris 101; read-out: MIC
Description: as §1

E. coli 387-1 = test system: E. coli 387-1
Description: as §1

K. pneumoniae 4964 = details: Klebsiella pneumoniae, 4964, K. pneumoniae 4964; read-out: MIC
Description: as §1

K. pneumoniae A = details: Klebsiella pneumoniae, K. pneumoniae A; read-out: MIC
Description: as §1

K. pneumoniae 5096 = test system: K. pneumoniae 5096
Description: as §1

S. pyogenes 503-782 = details: Streptococcus pyogenes, 503782; S. pyogenes 503-782; read-out: MIC
Description: as §1

K. pneumoniae 8357 = details: Klebsiella pneumoniae, 8357, K. pneumoniae 8357; read-out: MIC
Description: as §1

S. marcescens S3 = details: Serratia marcescens; S. marcescens S3; read-out: MIC
Description: as §1

P. aeruginosa Stone 130 = details: Pseudomonas aeruginosa, STONE130, read-out: MIC
Description: as §1

K. pneumoniae HE7 = details: Klebsiella pneumoniae; K. pneumoniae HE7; read-out: MIC
Description: as §1

E. aerogenes 8 = test system: E. aerogenes 8
Description: as §1

E. aerogenes 83 = test system: E. aerogenes 83
Description: as §1

K. pneumoniae 35 = details: Klebsiella pneumoniae; K. pneumoniae 35; read-out: MIC
Description: as §1

P. rettgeri ATCC 9250 = details: Providencia rettgeri, ATCC9250, P. rettgeri ATCC 9250; read-out: MIC
Description: as §1

C. freundii CDC6 = details: Citrobacter freundii
Description: as §1

E. cloacae 9570A = details: Enterobacter cloacae, read-out: MIC
Description: as §1

P. vulgaris ATCC 6380 = details: Proteus vulgaris, ATCC6380, P. vulgaris ATCC 6380; read-out: MIC
Description: as §1

S. marcescens S1 = details: Serratia marcescens, S1, S. marcescens S1; read-out: MIC
Description: as §1

E. coli 503-455 = test system: E. coli 503-455
Description: as §1

S. marcescens SM = details: Serratia marcescens, read-out: MIC
Description: as §1

P. aeruginosa 8710 = details: Pseudomonas aeruginosa; P. aeruginosa 8710; read-out: MIC
Description: as §1

P. mirabilis 503-1136 = details: Proteus mirabilis, 5031136, P. mirabilis 503-1136; read-out: MIC
Description: as §1

P. mirabilis 620A = details: Proteus mirabilis, 620A, P. mirabilis 620A; read-out: MIC
Description: as §1

S. aureus Smith = details: Staphylococcus aureus, S. aureus Smith; read-out: MIC
Description: as §1

[1] = Pseudomonas aeruginosa, 50356, P. aeruginosa 503-56, read-out: MIC
[2] = Klebsiella pneumoniae, K. pneumoniae 5096, read-out: MIC
[3] = Klebsiella aerogenes, 83, E. aerogenes 83, read-out: MIC
[4] = Escherichia coli, 503455, E. coli 503-455, read-out: MIC
[5] = Escherichia coli, 3871, E. coli 387-1, read-out: MIC
[6] = Klebsiella aerogenes, 8, E. aerogenes 8
[7] = CDC6, C. freundii CDC6, read-out: MIC

CC1(C)S[C@@H]2[C@H](N=CN3CCC(c4ncc[nH]4)CC3)C(=O)N2[C@H]1C(=O)O [O, [2S-(2alpha,5alpha,6beta)]-6-[[[4-(1H-imidazol-2-yl-1-piperidinyl]methylene]amino]-3,3-dimethyl-7-oxo-4-thia-1-azabicyclo[3.2.0]heptane-2-carboxylic acid hydrochloride trihydrate]
MIC (S. aureus 1059B): > 128 µg/mL
MIC (S. pneumoniae SC): 1 µg/mL
MIC (C. freundii 8ASM): 0.062 µg/mL
MIC (P. mirabilis 190): 0.5 µg/mL
MIC (P. aeruginosa POW 151): > 128 µg/mL
MIC (E. cloacae 24): 1 µg/mL
MIC (S. typhi P58A): 0.125 µg/mL
MIC (K. pneumoniae 503-964): 0.5 µg/mL
MIC (E. coli 4): 0.125 µg/mL
MIC (S. marcescens S2): 0.5 µg/mL
MIC (S. marcescens 5805): 8 µg/mL
MIC (P. aeruginosa 503-56; P. aeruginosa 503-56, hydrochloride trihydrate): > 128 µg/mL
MIC (P. aeruginosa 503-56; [1]): 128 µg/mL
MIC (S. marcescens S4): 2 µg/mL
MIC (S. pneumoniae 6301): 1 µg/mL
MIC (S. marcescens S147): 0.25 µg/mL
MIC (E. aerogenes 503-478): > 128 µg/mL
MIC (S. pyogenes 4): 0.5 µg/mL
MIC (E. coli R-563): 0.125 µg/mL
MIC (E. cloacae 6951): 16 µg/mL
MIC (S. faecalis C1): 32 µg/mL
MIC (P. vulgaris 101): 32 µg/mL
MIC (E. coli 387-1; Escherichia coli, 3871): 0.125 µg/mL
MIC (K. pneumoniae 4964): 64 µg/mL
MIC (K. pneumoniae A): 0.062 µg/mL
MIC (K. pneumoniae 5096; [2]): 64 µg/mL
MIC (S. pyogenes 503-782): 32 µg/mL
MIC (K. pneumoniae 8357): 0.5 µg/mL
MIC (S. marcescens S3): 0.25 µg/mL
MIC (P. aeruginosa Stone 130): > 128 µg/mL
MIC (K. pneumoniae HE7): > 128 µg/mL
MIC (E. aerogenes 8; Klebsiella aerogenes, E. aerogenes 8, read-out: MIC): 32 µg/mL
MIC (E. aerogenes 83; [3]): 8 µg/mL
MIC (K. pneumoniae 35): 1 µg/mL
MIC (P. rettgeri ATCC 9250): 0.5 µg/mL
MIC (C. freundii CDC6; CDC6): 0.125 µg/mL
MIC (E. cloacae 9570A): 0.5 µg/mL
MIC (P. vulgaris ATCC 6380): 0.25 µg/mL
MIC (S. marcescens S1): 0.5 µg/mL
MIC (E. coli 503-455; [4]): 1 µg/mL
MIC (S. marcescens SM): 0.5 µg/mL
MIC (P. aeruginosa 8710): > 128 µg/mL

CC1(C)S[C@@H]2[C@H](N=CN3CCC(CCCn4ccnc4CO)CC3)C(=O)N2[C@H]1C(=O)O [R, [2S-(2alpha,5alpha,6beta)]-6-[[[4-[3-[2-(hydroxymethyl)-1H-imidazol-1-yl]propyl-1-piperidinyl]methylene]amino]-3,3-dimethyl-7-oxo-4-thia-1-azabicyclo[3.2.0]heptane-2-carboxylic acid hydrochloride 1.1 molar hydrate]
MIC (S. aureus 1059B): 64 µg/mL
MIC (C. freundii 8ASM): < 0.008 µg/mL
MIC (P. mirabilis 190): 0.062 µg/mL
MIC (E. cloacae 24): 0.25 µg/mL
MIC (S. typhi P58A): 0.062 µg/mL
MIC (P. mirabilis 503-1136): 4 µg/mL
MIC (P. mirabilis 620A): 64 µg/mL
MIC (K. pneumoniae 503-964): 0.016 µg/mL
MIC (E. coli 4): 2 µg/mL
MIC (S. marcescens S2): 0.125 µg/mL
MIC (S. marcescens 5805): 1 µg/mL
MIC (S. marcescens S4): 0.5 µg/mL
MIC (S. marcescens S147): 0.125 µg/mL
MIC (E. aerogenes 503-478): 0.5 µg/mL
MIC (E. coli R-563): 4 µg/mL
MIC (E. cloacae 6951): 8 µg/mL
MIC (P. vulgaris 101): 1 µg/mL
MIC (E. coli 387-1; [5]): 2 µg/mL
MIC (K. pneumoniae 4964): 0.5 µg/mL
MIC (K. pneumoniae A): < 0.008 µg/mL
MIC (K. pneumoniae 5096; Klebsiella pneumoniae, 5096, K. pneumoniae 5096): 8 µg/mL
MIC (S. aureus Smith): 8 µg/mL
MIC (K. pneumoniae 8357): 0.062 µg/mL
MIC (S. marcescens S3): 0.125 µg/mL
MIC (K. pneumoniae HE7): > 128 µg/mL
MIC (E. aerogenes 8; [6]): 32 µg/mL
MIC (E. aerogenes 83; Klebsiella aerogenes, 83): 1 µg/mL
MIC (K. pneumoniae 35): 0.062 µg/mL
MIC (P. rettgeri ATCC 9250): 0.062 µg/mL
MIC (C. freundii CDC6; [7]): 0.062 µg/mL
MIC (E. cloacae 9570A): 0.062 µg/mL
MIC (P. vulgaris ATCC 6380): < 0.008 µg/mL
MIC (S. marcescens S1): 0.062 µg/mL
MIC (E. coli 503-455; [4]): 0.5 µg/mL
MIC (S. marcescens SM): 0.062 µg/mL

CN(C)C=Nc1nccn1CCCC1CCN(C=N[C@@H]2C(=O)N3[C@@H]2SC(C)(C)[C@@H]3C(=O)O)CC1 [S, [2S-(2alpha,5alpha,6beta)]-6-[[[4-[3-[2-[[(dimethylamino)methylene]amino]-1H-imidazol-1-yl]propyl]-1-piperidinyl]methylene]amino]-3,3-dimethyl-7-oxo-4-thia-1-azabicyclo[3.2.0]heptane-2-carboxylic acid 1.7 molar hydrochloride 2.6 molar hydrate]
MIC (S. aureus 1059B): 64 µg/mL
MIC (C. freundii 8ASM): 0.125 µg/mL
MIC (P. mirabilis 190): 1 µg/mL
MIC (E. cloacae 24): 1 µg/mL
MIC (S. typhi P58A): 0.25 µg/mL
MIC (P. mirabilis 503-1136): 8 µg/mL
MIC (P. mirabilis 620A): > 128 µg/mL
MIC (K. pneumoniae 503-964): 0.5 µg/mL
MIC (E. coli 4): 4 µg/mL
MIC (S. marcescens S2): 2 µg/mL
MIC (S. marcescens 5805): 4 µg/mL
MIC (P. aeruginosa 503-56; [1]): > 128 µg/mL
MIC (S. marcescens S4): 4 µg/mL
MIC (S. marcescens S147): 2 µg/mL
MIC (E. aerogenes 503-478): 2 µg/mL
MIC (E. coli R-563): 8 µg/mL
MIC (E. cloacae 6951): 8 µg/mL
MIC (P. vulgaris 101): 8 µg/mL
MIC (E. coli 387-1; [5]): 2 µg/mL
MIC (K. pneumoniae 4964): 0.5 µg/mL
MIC (K. pneumoniae A): 0.5 µg/mL
MIC (K. pneumoniae 5096; [2]): > 128 µg/mL
MIC (S. aureus Smith): 8 µg/mL
MIC (K. pneumoniae 8357): 0.5 µg/mL
MIC (S. marcescens S3): 2 µg/mL
MIC (K. pneumoniae HE7): > 128 µg/mL
MIC (E. aerogenes 8; [6]): 32 µg/mL
MIC (E. aerogenes 83; [3]): 4 µg/mL
MIC (K. pneumoniae 35): 0.5 µg/mL
MIC (P. rettgeri ATCC 9250): 0.25 µg/mL
MIC (C. freundii CDC6; [7]): 0.5 µg/mL
MIC (E. cloacae 9570A): 1 µg/mL
MIC (P. vulgaris ATCC 6380): 1 µg/mL
MIC (S. marcescens S1): 4 µg/mL
MIC (E. coli 503-455; Escherichia coli, 503455): 1 µg/mL
MIC (S. marcescens SM): 2 µg/mL
